Patent US9394282B2, “Pyrazole carboxamides as Janus kinase inhibitors” (Merck Sharp & Dohme Corp., priority 2011, dated 2016)

Biological target: JAK1 (Homo sapiens (Human), UniProt P23458)
Test: Jak biochemical HTRF assay, JAK1
Settings: recombinant purified GST-tagged catalytic domain; HTRF format; [ATP] 31.8 μM
Text: Jak Biochemical HTRF Assay Protocol
Subsequent reagent additions employed an Agilent Bravo.

Sequence of JAK1 (P23458 875-1153): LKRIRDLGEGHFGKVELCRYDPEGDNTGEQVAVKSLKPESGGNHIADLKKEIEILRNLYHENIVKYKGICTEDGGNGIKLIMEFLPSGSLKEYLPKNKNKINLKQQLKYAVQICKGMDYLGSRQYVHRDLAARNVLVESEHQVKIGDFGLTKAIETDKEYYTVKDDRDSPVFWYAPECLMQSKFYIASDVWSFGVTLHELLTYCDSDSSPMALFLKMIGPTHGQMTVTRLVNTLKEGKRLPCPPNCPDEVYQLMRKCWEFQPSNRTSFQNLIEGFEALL

For `N#C[C@@H]1CCOC[C@H]1n1cc(C(N)=O)c(Nc2cnc3cc(Cl)ccc3c2)n1` (single isomer, unassigned) [Example 9-21, 3-[(7-chloroquinolin-3-yl)amino]-1-[(3S,4R or 3R,4S)-4-cyanotetrahydro-2H-pyran-3-yl]-1H-pyrazole-4-carboxamide], which IC50 is on record?
The IC50 was 21 nM.

How did the IC50 turn out when `N#C[C@@H]1CCOC[C@H]1n1cc(C(N)=O)c(Nc2ccc(C(F)(F)F)nc2)n1` (single isomer, unassigned) [Example 9-15, 1-[(3S,4R or 3R,4S)-4-cyanotetrahydro-2H-pyran-3-yl]-3-{[6-(trifluoromethyl)pyridin-3-yl]amino}-1H-pyrazole-4-carboxamide] was run?
Its IC50 is 46 nM.

`N#CCC1(COC(=O)N2CC[C@@H](n3cc(C(N)=O)c(Nc4ccc(F)cc4)n3)[C@H](C#N)C2)CC1` (racemic) [Example 5-39, [1-(cyanomethyl)cyclopropyl]methyl (3R,4R and 3S,4S)-4-{4-carbamoyl-3-[(4-fluorophenyl)amino]-1H-pyrazol-1-yl}-3-cyanopiperidine-1-carboxylate] was tested. Which IC50 did it give?
Its IC50 is 25 nM.

How did the IC50 turn out when `N#C[C@@H]1CCN(Cc2cncs2)C[C@H]1n1cc(C(N)=O)c(Nc2ccc(F)cc2)n1` (racemic) [Example 7-1, 1-[(3S,4R and 3R,4S)-4-Cyano-1-(1,3-thiazol-5-ylmethyl)piperidin-3-yl]-3-[(4-fluorophenyl)amino]-1H-pyrazole-4-carboxamide] was run?
The IC50 was 0.5 nM.

With `N#C[C@@H]1CN(Cc2cccc(F)n2)CC[C@H]1n1cc(C(N)=O)c(Nc2ccc(F)cc2)n1` (racemic) [Example 6-36, 1-{(3R,4R and 3S,4S)-3-cyano-1-[(6-fluoropyridin-2-yl)methyl]piperidin-4-yl}-3-[(4-fluorophenyl)amino]-1H-pyrazole-4-carboxamide] as the compound, how does the IC50 read?
The IC50 was 2 nM.

Which IC50 does the source give for `N#C[C@@H]1CN(C(=O)OC2CCCC2)CC[C@H]1n1cc(C(N)=O)c(Nc2ccc(F)cc2)n1` (racemic) [Example 5-11, cyclopentyl (3R,4R and 3S,4S)-4-{4-carbamoyl-3-[(4-fluorophenyl)amino]-1H-pyrazol-1-yl}-3-cyanopiperidine-1-carboxylate] here?
The IC50 was 29 nM.

For `N#C[C@@H]1CN(Cc2cncc(F)c2)CC[C@H]1n1cc(C(N)=O)c(Nc2ccc(F)cc2)n1` (racemic) [Example 6-28, 1-{(3R,4R and 3S,4S)-3-cyano-1-[(5-fluoropyridin-3-yl)methyl]piperidin-4-yl}-3-[(4-fluorophenyl)amino]-1H-pyrazole-4-carboxamide], which IC50 is on record?
Its IC50 is 6 nM.

How did the IC50 turn out when `N#C[C@@H]1CN(C(=O)OC2CCCC2)CC[C@@H]1n1cc(C(N)=O)c(Nc2ccc(F)cc2)n1` (racemic) [Example 5-49, cyclopentyl (3R,4S and 3S,4R)-4-{4-carbamoyl-3-[(4-fluorophenyl)amino]-1H-pyrazol-1-yl}-3-cyanopiperidine-1-carboxylate] was run?
The IC50 was 257 nM.

For `Cc1ncc(CN2CC[C@@H](C#N)[C@H](n3cc(C(N)=O)c(Nc4ccc(F)cc4)n3)C2)s1` (racemic) [Example 6-18, 1-{(3S,4R and 3R,4S)-4-cyano-1-[(2-methyl-1,3-thiazol-5-yl)methyl]piperidin-3-yl}-3-[(4-fluorophenyl)amino]-1H-pyrdzole-4-carboxamide], which IC50 is on record?
The IC50 was 1 nM.

`CC(C)(COC(=O)N1CC[C@H](n2cc(C(N)=O)c(Nc3ccc(F)cc3)n2)[C@H](C#N)C1)n1cccn1` (racemic) [Example 5-53, 2-methyl-2-(1H-pyrazol-1-yl)propyl (3R,4S and 3S,4R)-4-{4-carbamoyl-3-[(4-fluorophenyl)amino]-1H-pyrazol-1-yl}-3-cyanopiperidine-1-carboxylate] was tested. Which IC50 did it give?
The IC50 was 445 nM.

How did the IC50 turn out when `N#C[C@H]1CCOC[C@@H]1n1cc(C(N)=O)c(Nc2ccc(C(F)(F)F)nc2)n1` (single isomer, unassigned) [Example 9-14, 1-[(3R,4S or 3S,4R)-4-cyanotetrahydro-2H-pyran-3-yl]-3-{[6-(trifluoromethyl)pyridin-3-yl]amino}-1H-pyrazole-4-carboxamide] was run?
Its IC50 is 0.7 nM.

How did the IC50 turn out when `N#C[C@@H]1CCOC[C@H]1n1cc(C(N)=O)c(Nc2ccc(Cl)c(Cl)c2)n1` (single isomer, unassigned) [Example 9-11, 1-[(3S,4R or 3R,4S)-4-cyanotetrahydro-2H-pyran-3-yl]-3-[(3,4-dichlorophenyl)amino]-1H-pyrazole-4-carboxamide] was run?
Its IC50 is 0.4 nM.

How did the IC50 turn out when `N#C[C@@H]1CN(C(=O)OCC(F)F)CC[C@@H]1n1cc(C(N)=O)c(Nc2ccc(F)cc2)n1` (racemic) [Example 5-65, 2,2-difluoroethyl (3R,4S and 3S,4R)-4-{4-carbamoyl-3-[(4-fluorophenyl)amino]-1H-pyrazol-1-yl}-3-cyanopiperidine-1-carboxylate] was run?
The IC50 was 83 nM.

With `N#C[C@H]1CCOC[C@@H]1n1cc(C(N)=O)c(Nc2ccc(Cl)c(Cl)c2)n1` (single isomer, unassigned) [Example 9-10, 1-[(3R,4S or 3S,4R)-4-cyanotetrahydro-2H-pyran-3-yl]-3-[(3,4-dichlorophenyl)amino]-1H-pyrazole-4-carboxamide] as the compound, how does the IC50 read?
The IC50 was 26 nM.

With `N#C[C@@H]1CN(CCC2CCOCC2)CC[C@H]1n1cc(C(N)=O)c(Nc2ccc(F)cc2)n1` (racemic) [Example 6-31, 1-{(3R,4R and 3S,4S)-3-cyano-1-[2-(tetrahydro-2H-pyran-4-yl)ethyl]piperidin-4-yl}-3-[(4-fluorophenyl)amino]-1H-pyrazole-4-carboxamide] as the compound, how does the IC50 read?
The IC50 was 23 nM.

For `CC(C)(COC(=O)N1CC[C@@H](n2cc(C(N)=O)c(Nc3ccc(F)cc3)n2)[C@H](C#N)C1)n1cccn1` (racemic) [Example 5-27, 2-methyl-2-(1H-pyrazol-1-yl)propyl (3R,4R and 3S,4S)-4-{4-carbamoyl-3-[(4-fluorophenyl)amino]-1H-pyrazol-1-yl}-3-cyanopiperidine-1-carboxylate], which IC50 is on record?
The IC50 was 92 nM.

Which IC50 does the source give for `N#C[C@@H]1CCN(C(=O)OCCN2CCOCC2)CC1n1cc(C(N)=O)c(Nc2ccc(F)cc2)n1` (mixture of isomers) [Example 5-87, 2-morpholin-4-ylethyl (3S,4R and 3R,4S)-3-{4-carbamoyl-3-[(4-fluorophenyl)amino]-1H-pyrazol-1-yl}-4-cyanopiperidine-1-carboxylate] here?
The IC50 was 4 nM.

For `Cn1ccc(CN2CC[C@@H](n3cc(C(N)=O)c(Nc4ccc(F)cc4)n3)[C@H](C#N)C2)n1` (racemic) [Example 6-26, 1-{(3R,4R and 3S,4S)-3-cyano-1-[(1-methyl-1H-pyrazol-3-yl)methyl]piperidin-4-yl}-3-[(4-fluorophenyl)amino]-1H-pyrazole-4-carboxamide], which IC50 is on record?
Its IC50 is 17 nM.

`COC1CC(CN2CC[C@@H](C#N)[C@H](n3cc(C(N)=O)c(Nc4ccc(F)cc4)n3)C2)C1` (mixture of isomers) [Example 6-9, 1-{(3S,4R and 3R,4S)-4-cyano-1-[(3-methoxycyclobutyl)methyl]piperidin-3-yl}-3-[(4-fluorophenyl)amino]-1H-pyrazole-4-carboxamide] was tested. Which IC50 did it give?
Its IC50 is 16 nM.

For `CCOC(=O)N1CC[C@H](n2cc(C(N)=O)c(Nc3ccc(F)cc3)n2)[C@H](C#N)C1` (racemic) [Example 5-44, ethyl (3R,4S and 3S,4R)-4-{4-carbamoyl-3-[(4-fluorophenyl)amino]-1H-pyrazol-1-yl}-3-cyanopiperidine-1-carboxylate], which IC50 is on record?
Its IC50 is 200 nM.

With `N#C[C@@H]1CCOC[C@H]1n1cc(C(N)=O)c(Nc2ccccc2)n1` (single isomer, unassigned) [Example 9-38, 1-[(3R,4S or 3S,4R)-4-cyanotetrahydro-2H-pyran-3-yl]-3-(phenylamino)-1H-pyrazole-4-carboxamide] as the compound, how does the IC50 read?
Its IC50 is 0.3 nM.

`CC(C)(C)COC(=O)N1CC[C@@H](n2cc(C(N)=O)c(Nc3ccc(F)cc3)n2)[C@H](C#N)C1` (racemic) [Example 5-18, 2,2-dimethylpropyl (3R,4R and 3S,4S)-4-{4-carbamoyl-3-[(4-fluorophenyl)amino]-1H-pyrazol-1-yl}-3-cyanopiperidine-1-carboxylatc] was tested. Which IC50 did it give?
The IC50 was 132 nM.

With `N#C[C@@H]1CN(C(=O)OCC(F)(F)F)CC[C@@H]1n1cc(C(N)=O)c(Nc2ccc(F)cc2)n1` (racemic) [Example 5-66, 2,2,2-trifluoroethyl (3R,4S and 3S,4R)-4-{4-carbamoyl-3-[(4-fluorophenyl)amino]-1H-pyrazol-1-yl}-3-cyanopiperidine-1-carboxylate] as the compound, how does the IC50 read?
Its IC50 is 84 nM.

For `CCOC(=O)COC(=O)N1CC[C@@H](n2cc(C(N)=O)c(Nc3ccc(F)cc3)n2)[C@H](C#N)C1` (racemic) [Example 5-38, 2-ethoxy-2-oxoethyl (3R,4R and 3S,4S)-4-{4-carbamoyl-3-[(4-fluorophenyl)amino]-1H-pyrazol-1-yl}-3-cyanopiperidine-1-carboxylate], which IC50 is on record?
Its IC50 is 3 nM.

How did the IC50 turn out when `N#C[C@@H]1CCN(C(=O)OC2CCOCC2)CC1n1cc(C(N)=O)c(Nc2ccc(F)cc2)n1` (mixture of isomers) [Example 5-85, tetrahydro-2H-pyran-4-yl (3S,4R and 3R,4S)-3-{4-carbamoyl-3-[(4-fluorophenyl)amino]-1H-pyrazol-1-yl}-4-cyanopiperidine-1-carboxylate] was run?
The IC50 was 6 nM.

With `N#C[C@H]1CS(=O)(=O)CC1n1cc(C(N)=O)c(Nc2ccnc(F)c2)n1` (mixture of isomers) [Example 8-8, 1-((3S,4S and 3R,4R)-4-cyano-1,1-dioxidotetrahydrothiophen-3-yl)-3-((2-fluoropyridin-4-yl)amino)-1H-pyrazole-4-carboxamide] as the compound, how does the IC50 read?
The IC50 was 5 nM.

Which IC50 does the source give for `N#C[C@H]1CCOC[C@@H]1n1cc(C(N)=O)c(Nc2ccccc2)n1` (single isomer, unassigned) [Example 9-37, 1-[(3S,4R or 3R,4S)-4-cyanotetrahydro-2H-pyran-3-yl]-3-(phenylamino)-1H-pyrazole-4-carboxamide] here?
Its IC50 is 10 nM.

With `CCOC(=O)COC(=O)N1CC[C@H](n2cc(C(N)=O)c(Nc3ccc(F)cc3)n2)[C@H](C#N)C1` (racemic) [Example 5-59, 2-ethoxy-2-oxoethyl (3R,4S and 3S,4R)-4-{4-carbamoyl-3-[(4-fluorophenyl)amino]-1H-pyrazol-1-yl}-3-cyanopiperidine-1-carboxylate] as the compound, how does the IC50 read?
The IC50 was 323 nM.

For `N#C[C@@H]1CN(C(=O)OCC(F)F)CC[C@H]1n1cc(C(N)=O)c(Nc2ccc(F)cc2)n1` (racemic) [Example 5-16, 2,2-difluoroethyl (3R,4R and 3S,4S)-4-{4-carbamoyl-3-[(4-fluorophenyl)amino]-1H-pyrazol-1-yl}-3-cyanopiperidine-1-carboxylate], which IC50 is on record?
Its IC50 is 8 nM.
